Positions of bridges follow the written chain, without caps; N, C: chain ends. No end group written: not given here.

In experiment [1] the test system is ATDC5 cells. Nature of the experiment: RT-PCR analysis of chondrocytic factors in ATDC5 cells. It is filed as cell-based, mouse. To be noted: 200 μM peptide D. As for the experimental part:
Mouse prechondrocytes, ATDC5 cells (5×10^4 cells) were seeded in a 6-cm dish (IWAKI) and cultured in the presence of a cartilage differentiation induction medium containing 10 ng/ml insulin and transferrin for 7 days and for 14 days. The peptide D group was added at 200 μM peptide D, and 5 ng/ml of BMP-4 was added to the positive control group. The cells were washed with PBS after culture, the cells were dissolved in 1 ml TRIZOL […], and the solution was obtained. After 5 min at room temperature, 0.2 ml of chloroform (Wako) was added, followed by vigorous inversion mixing and centrifugation at 4° C. and 12,000×g for 15 minutes. The supernatant was collected in a new tube, and was added to 0.5 ml of isopropanol (Nacalai), followed by inversion mixing. The resultant was left at room temperature for 10 minutes and centrifuged at 4° C. and 12,000×g for 10 minutes. The supernatant was discarded, and the resultant was added to 70% ethanol. After dry-up, RNA was dissolved in 87.5 μl of DEPC water, 10 μl of RDD buffer and 2.5 μl of DNase, and the mixture was allowed to stand at room temperature for 10 minutes. The RNA sample was cleaned by the RNeasy MinElute Cleanup Kit (Qiagen), and the concentration of the obtained RNA was measured using NanoDrop. The obtained RNA (250 ng) was electrophoresed on 1% agarose gel, checked degradation of RNA, and undegradated RNA samples (250 ng each) were used in RT-PCR. RT-PCR was carried out using the ThermoScript RT-PCR System (Invitrogen) and random primers.
After cDNA was synthesized, PCR was carried out using primers specific for the α1 chains of mouse type II collagen (mCol 2α1), mouse type X collagen (mCol X), and mouse aggrecan (mAggrecan). PCR was carried out using mouse GAPDH-specific primers for standardization. The sequences of PCR primers used are shown below. […]
The sample obtained after PCR was electrophoresed on 2% agarose gel, and a specific band was detected by UV with the use of ethidium bromide staining (FIG. 3A and FIG. 4A). The obtained image was analyzed using the CSAnalyzer (ATTO).

Experiment [2] concerns human mesenchymal stem cells. Nature of the experiment: Induction of human mesenchymal stem cell differentiation, alcian blue staining. It is filed as cell-based. Particulars: 100 μM peptide D, 14 days. The procedure:
Human mesenchymal stem cells were seeded at 5×10^4 cells/well in 48-well plate (IWAKI). The culture supernatant was removed 24 hours later, the medium was replaced with a chondrocyte differentiation induction medium (Lonza), and the medium was replaced with fresh medium every 3 or 4 days. Simultaneously, peptide D was added at 100 μM (the group to which peptide D was administered). Further, a group cultured with 100 μM peptide D and 1 ng/ml BMP-4 (R&D) was examined. BMP-4 was added at 1 ng/ml as a positive control group. After 14 days, these cells were fixed in 10% neutral buffered formalin. After fixation, the cells were stained with an alcian blue solution for 4 hours, and the culture plate was photographed. Moreover the pigment was eluted using a 6M guanidinium hydrochloride solution from the culture plate. The eluate (100 μl) was moved to a new 96-well plate, and measured the absorbance at 620 nm by microplate reader (BMG Labtech).

The subject of experiment [3] is ATDC5 cells. Nature of the experiment: GeneChip analysis using ATDC5 cells. It is filed as cell-based, mouse. Particulars: 100 μM peptide D, signal ratio to control group. As for the experimental part: The peptide described in Example 1 was used. The ATDC5 cells described in Example 2 were used as cultured cells. The ATDC5 cells were seeded in a 6-cm dish (IWAKI) at 1×10^5 cells/well. The culture supernatant was removed 72 hours later, and DMEM/F-12 medium containing 10 ng/ml insulin (Roche) and 10 ng/ml transferrin (Roche) was added. The medium was replaced with fresh medium every 3 or 4 days.
Simultaneously, peptide D was added at 100 μM. The medium was removed 4 days and 7 days after the induction of differentiation. The cells were washed with PBS, and RNA of these cells was obtained using the Absolutely RNA Miniprep Kit (Stratagene) 7 days after the induction of differentiation. The extracted RNA was subjected to GeneChip analysis (Affimetrix, Kurabo).

Experiment [4] has as its system human mesenchymal stem cells. Kind of experiment: GeneChip analysis using human mesenchymal stem cells. It is filed as cell-based. Particulars: for aggrecan expression level: 10 ng/ml TGF-β3; for expression levels of Sox9 compared with the control group: 24 hours and 96 hours after the addition. The procedure:
Human mesenchymal stem cells were seeded in a 6-well plate (Nunc) at 1×10^5 cells/well, the culture supernatant was discarded 96 hours later, and 2 ml of a cartilage differentiation induction medium was added. The control group, the 40 μM peptide D group, the 10 ng/ml TGF-β3 group, and the 40 μM peptide D+10 ng/ml TGFβ3 group were prepared. Each culture medium was replaced 24 hours after the stimulation. The cells were dissolved in 1 ml of TRIZOL (Invitrogen) 96 hours after the stimulation, and RNA was isolated. The isolated RNA was used for GeneChip analysis (Affimetrix, Kurabo).

The next experiment concerns the target T1, RANKL (Homo sapiens, UniProt O14788).
T1 sequence (O14788 140-317 limits assumed): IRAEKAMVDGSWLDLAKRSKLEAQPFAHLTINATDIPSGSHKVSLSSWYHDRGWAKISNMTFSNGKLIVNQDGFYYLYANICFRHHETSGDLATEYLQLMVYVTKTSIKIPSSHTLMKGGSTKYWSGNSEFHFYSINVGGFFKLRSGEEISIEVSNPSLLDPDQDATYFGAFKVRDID
To be noted: Aoki et al., J. Clin. Invest., 116: 1525, 2006; cited from earlier work.

For experiment [5], the system named is ATDC5 cells. Kind of experiment: Induction of differentiation of ATDC5 cells by peptide D, alcian blue staining. Particulars: peptide D 25 μM and 100 μM, 14 days. Type of experiment: cell-based, mouse. The procedure:
The culture cells (ATDC5) derived from a mouse chondrogenic EC (embryonal carcinoma) cell was provided by Professor Hiraki and Associate Professor Shukunami in the Institute for Frontier Medical Sciences, Kyoto University. DMEM/F-12 medium (Cellgro) containing 5% FBS (Nichirei) was used as a maintenance medium.
ATDC5 cells were seeded at 2×10^4 cells/well in a 48-well plate (IWAKI). The culture supernatant was removed 24 hours later, and DMEM/F-12 medium containing 10 ng/ml insulin (Roche) and transferrin (Roche) were added. The medium was replaced with fresh medium every 3 or 4 days.
Simultaneously, peptide D was added at 25 μM and 100 μM. One ng/ml and 5 ng/ml BMP-4 (R&D) were added as positive control. In order to examine the synergistic effects of peptide D and BMP-4, further, 25 μM peptide D and 1 ng/ml BMP-4 were added. After 14 days, these cells were fixed in 10% neutral buffered formalin. After fixation, the cells were stained with an alcian blue solution for 4 hours, and the culture plate was photographed.

In experiment [6] the test system is human mesenchymal stem cells. Kind of experiment: Three-dimensional culture using human mesenchymal stem cells. It is filed as cell-based. The procedure: Chondrocytes are three-dimensionally cultured induce […]. Three dimensional culture system relatively reflected the natural conditions. Human mesenchymal stem cells were seeded at 2.5×10^5 cells in 15-ml tubes (TPP) and the cells were collected by centrifuged at 1,000 rpm and room temperature for 4 minutes. The supernatant was removed and the medium was replaced with 0.5 ml chondrocyte differentiation induction medium (Lonza) with 10 ng/ml TGF-β3 (R&D). The medium was replaced with fresh medium every 3 or 4 days. Simultaneously, peptide D was added at 50 μM and at 150 μM (i.e., a low-dose peptide D group and a high-dose peptide D group). After 14 days, the cells were fixed in 4% PFA (Wako), photographed under a microscope (FIG. 8). A pellet was embedded in paraffin, and the sample slide was prepared, followed by alcian blue staining and safranin 0 staining (FIG. 9).
2.5×10^5 human mesenchymal stem cells were cultured in the presence of 40 μM peptide D and 10 ng/ml TGF-β3 with cartilage differentiation induction medium for 21 days. After the pellets were fixed in 4% PFA, the pellet was photographed under a microscope (FIG. 10). After the pellet had been embedded in paraffin, the sample slide was prepared and stained with alcian blue and safranin 0 (FIG. 11).
After the pellets were fixed in 4% PFA, the pellet was photographed under a microscope (FIG. 12). After the pellet had been embedded in paraffin, the sample slide was prepared and stained with alcian blue and safranin O (FIG. 13).

Where [7] appears, read: 24 hours after the addition, 40 μM peptide D.
[8] abbreviates: 96 hours after the addition, 40 μM peptide D.
[9] abbreviates: peptide D 50 μM and 150 μM, medium with 10 ng/ml TGF-β3, 14 days.

With “peptide D: cyclic peptide of 9 amino acid residues, SEQ ID NO: 7, two cysteine residues bound by a disulfide bond; binds to RANKL (YCWSQYLCY; disulfide 2-8 (inferred))”, in the experiment with ATDC5 cells [1] (day 7, standardized with GAPDH), the aggrecan expression level result is reported as “increased” and the “expression level of the α chain of type II collagen compared with the control” value is “significantly increased”. Also, the “expression level of type X collagen” value in the experiment with ATDC5 cells [1] (day 14, standardized with GAPDH) is reported as “particularly increased”. In addition, the “absorbance of the eluate at 620 nm (alcian blue pigment) versus control group” value in experiment [2] was “significant increase”. The “alcian blue positive cells compared with control” value in experiment [2] (chondrocyte differentiation induction medium) is on record as “increased”. Further, in the experiment with ATDC5 cells [3], the “expression level of BMP-7” value was “increased”; the “expression levels of CTGF, PDGF, TGFβ1, fibromodulin and receptors (PDGFR1, FGFR2)” value is reported as “increased”; the “expression levels of the α chains of type II, IX, and XI collagens” value is given as “increased”; the “expression of asporin, IGFbp2, IGFbp6, and ADAMTS5” value is given as “inhibited”. The “IGF2R and versican expression” value in experiment [4] (40 μM peptide D, 24 hours later) is “elevated”. The “IGF-1, LTBP2, and TGFβ1 expression levels” value in experiment [4] (40 μM peptide D, 96 hours later) is “elevated”. In experiment [4] (setting [7]), the aggrecan expression level entry was “elevated”. Further, the “expression levels of Sox9 compared with the control group” value in experiment [4] is listed as “elevated”. Also, the aggrecan expression level entry in experiment [4] (setting [8]) is given as “elevated expression level was maintained”. The “binding to RANKL” value with RANKL was “binds to RANKL”. In addition, the “number of alcian blue positive nodules” value with ATDC5 cells [5] is listed as “increased in a dose dependent manner”. In addition, in experiment [6] (setting [9]), the “alcian blue or safranin O staining of 3-dimensional pellets” value is “positive stained” and the pellet size entry is “increased the pellet size in a dose dependent manner”.

B1: TGF-β3: TGF-β3 (R&D), protein belonging to the TGF-β superfamily (protein, UniProt P10600 301-412, looked up)
Transforming growth factor …: ALDTNYCFRNLEENCCVRPLYIDFRQDLGWKWVHEPKGYYANFCSGPCPYLRSADTTHSTVLGLYNTLNPEASASPCCVPQDLEPLTILYYVGRTPKVEQLSNMVVKSCKCS
With B1, the figures for the aggrecan expression level result in experiment [4] (setting [7]) and in experiment [4] (setting [8]) were “equivalent to that of the control group” and “lower than that of the control group”, respectively. For the same molecule, the “expression levels of Sox9 compared with the control group” value in experiment [4] is “elevated”. In experiment [6] (21 days, 40 μM peptide D, 10 ng/ml TGF-β3, 100 ng/ml BMP-2), the pellet size entry is on record as “did not change”.

The values are drawn from patent publication US9435811B2, “Inducer of chondrocyte proliferation and differentiation” (ORIENTAL YEAST CO., LTD, priority 2008, dated 2016).
